The text below walks through data of paper PMC6081452, “Downstream Products are Potent Inhibitors of the Heparan Sulfate 2-O-Sulfotransferase” (Scientific Reports, 2018).

Positions count from the first letter of the chain named. Bounds are passed on as bounds.

Assay [1] addresses T1, non-glyc-HS2ST (non-glycosylated chicken HS2ST), WT (Gallus gallus, UniProt Q76KB1).
T1 construct: made in house; host or cells: E. coli Origami B (DE3)
T1 sequence (Q76KB1 69-356 limits assumed): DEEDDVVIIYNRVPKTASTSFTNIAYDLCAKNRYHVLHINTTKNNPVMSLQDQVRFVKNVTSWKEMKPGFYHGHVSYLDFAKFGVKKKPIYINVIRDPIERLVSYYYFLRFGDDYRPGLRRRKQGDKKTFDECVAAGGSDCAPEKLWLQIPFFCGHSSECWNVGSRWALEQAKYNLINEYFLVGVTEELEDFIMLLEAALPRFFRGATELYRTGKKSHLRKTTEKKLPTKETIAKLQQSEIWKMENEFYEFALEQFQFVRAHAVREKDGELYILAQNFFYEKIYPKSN
Briefly: BLI equilibrium binding, non-glyc-HS2ST WT. The conditions noted are these: BLI saturation binding curves, biotin-PEG4-linked hexasaccharide on sensor, n = 3, ± standard error of fit; — = response too weak to fit. The text has this:
HS-protein binding studies often utilize biologically-derived oligosaccharides of heterogeneous length and sulfation[34],[35]; however, the synthesis of oligosaccharides with defined length and specific sulfation patterns has recently become possible. We employed biolayer interferometry (BLI) to determine equilibrium surface binding constants (KD) for HS2ST with synthetic HS hexasaccharides (Fig. 1 and Supplementary Table 1). The HS compounds were attached to the BLI biosensor surface to conserve sample and to ensure a significant signal upon protein binding. The HS compounds contained a biotinylated PEG4 linker at the reducing terminus, enhancing the likelihood of a consistent presentation of the linear glycan on the sensor surface, in contrast to immobilizations via intra-chain modifications.
Binding constants were collected for two isoforms of the enzyme; a glycosylated human variant (glyc-HS2ST) expressed in mammalian cell lines, and a highly homologous (96% identity) non-glycosylated chicken isoform expressed in E. coli (non-glyc-HS2ST). […] Thus, the enhanced ligand affinity seen in HS2ST was unexpected and may relate to the specific position of the glycosylation site (N108)[41].
(§1) The chicken HS2ST-Maltose Binding Protein (MBP) fusion protein was expressed and purified according to previous studies. The fusion protein was transformed into E. coli Origami B (DE3) cells, cultured at 37 °C until OD600 reached 0.5, then induced with isopropyl-β-D-thiogalactopyranoside and allowed to grow overnight at 20 °C. Cells were sonicated, followed by a two-step purification procedure. Whole-cell supernatant was passed through an amylose column with Tris buffer (25 mM Tris, 500 mM NaCl, pH 7.5). An elution buffer consisted of Tris Buffer with 40 mM Maltose. The amylose column eluent was concentrated and loaded on a Superdex 200 Increase 10/300 GL with PBS buffer (10 mM sodium phosphate, 150 mM NaCl, pH 7.8) to separate trimeric protein from aggregate and independent MBP (Supplementary Fig. 4). All reported mutations formed homotrimeric complexes according to the SEC profiles, including the negative control (NC = R189A/R80E/R184E). Protein concentration was assessed via UV at 280 nm (MW of trimer ~210 KDa, extinction coefficient ~119,000 M^−1 cm^−1 according to ExPASy ProtParam webtool[56]). The trimeric protein preparation was adjusted to 5% glycerol and stored at −20 °C until use. Additional non-glyc-HS2ST constructs were created with the Q5® Mutagenesis kit (New England Biolabs Inc.; cat. # E0554S) and sequenced at the Georgia Genomics Facility at the University of Georgia.
The Octet® RED96 system (FortéBio Inc.) was employed to detect the affinity of the enzymes for specific HS targets. Due to the small size of the glycan and the deep HS2ST binding cavity, the glycan and protein were treated as ligand and analyte, respectively. Varyingly sulfated HS fragments conjugated to biotin linkers were purchased from Glycan Therapeutics Inc. with purities greater than 93% according to HPLC (sequences located in Supplementary Table 1). The glycans were immobilized onto streptavidin (SA) labeled biosensors (FortéBio; cat. #18–5019) at 0.5 µg/mL. Experiments were performed at 25 °C in PBS Buffer (10 mM sodium phosphate, 150 mM NaCl, pH 7.8) with a final concentration of 1X Pall Kinetics buffer (FortéBio Inc; cat. #18–1092). Fresh biosensors and protein samples were used for each measurement (no regeneration step). […]

For another assay, the target named is T2, non-glyc-HS2ST H142K (Gallus gallus, UniProt Q76KB1, H142K).
T2 construct: made in house; host or cells: E. coli Origami B (DE3)
T2 sequence (Q76KB1 69-356 H142K limits assumed): T1 sequence (Q76KB1 69-356 limits assumed) with H74K
Briefly: BLI equilibrium binding, non-glyc-HS2ST H142K. Further details: species or system chicken. The conditions noted are these: BLI saturation binding curves, n = 3, ± standard error of fit.
Text: To assess whether the inhibitory compounds interact with the active site, point mutations were introduced in non-glyc-HS2ST (Fig. 4a). Four mutants of the catalytic residue (H142A/E/R/K) were created, along with a mutation of the residue that facilitates 2-O-sulfation of IdoA residues (R189A)[27]. Additionally, a negative control (NC) was generated containing multiple mutations of positively charged residues (R189A, R80E, and R184E) that reduced the net charge of each protein monomer by 5. The extent that the mutations affected affinity provided an indication that the ligand had been bound in the active site (Table 1 and Supplementary Fig. 1). While R189A markedly diminished the affinity for all compounds, the NC mutations reduced affinity to immeasurable levels. Removal of the catalytic side chain (H142A) enhanced the affinity of each compound, compared to the WT, by approximately 2–3-fold. Addition of a positive charge at this location (H142K/R) further enhanced the affinity for each compound, so much so that a KD value could be measured even for 2. The H142E mutation diminished the affinity of 5 by half compared to WT, but its effects were less significant for binding to 3 or 4.
as §1
The Octet® RED96 system (FortéBio Inc.) was employed to detect the affinity of the enzymes for specific HS targets. […]

For orientation: Kd means the equilibrium constant for the complex coming apart. Low readings indicate tighter binding, high ones weaker binding. As for “GlcNS6S-GlcA-GlcNS3S6S-IdoA2S-GlcNS6S-GlcA~ [Compound 4]”, the Kd in assay [1] came out at 13 ± 3 nM; on non-glyc-HS2ST H142K, 11 ± 2 nM.

Take “GlcNS6S-GlcA-GlcNS6S-GlcA-GlcNS6S-GlcA~ [Compound 5]”: the Kd in assay [1] turned out to be 72 ± 8 nM; at non-glyc-HS2ST H142K it was 22 ± 2 nM.

Turning to “GlcNS6S-GlcA-GlcNS6S-IdoA2S-GlcNS6S-GlcA~ [Compound 3]”, the Kd was found to be 42 ± 5 nM in assay [1] and 15 ± 2 nM on non-glyc-HS2ST H142K.

Turning to “GlcNS-GlcA-GlcNS-IdoA2S-GlcNS-GlcA~ [Compound 2]”, the figures for the Kd (in assay [1]; on non-glyc-HS2ST H142K) were more than 500 nM and 198 ± 34 nM, respectively.
